“And” between values parts separate entries of the source, which are not always exact repeats. Equal values may be shown once.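 Protocol summary: plate cells (96-well), add compound at 5 concentrations, incubate 48 h, interpolate endpoints linearly. Abbreviation: GI50, concentration required for 50% inhibition of growth. The concentration for full growth arrest is given as TGI.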

Some test systems named below: ACHN renal; NCI-H23 lung; OVCAR-4 ovarian; HL-60(TB) leukemia; TK-10 renal; HCT-15 colon; OVCAR-5 ovarian; SF-539 CNS; SNB-19 CNS.
Common to all, as to experiment: NCI tumour cell line growth inhibition, 48 h

Turning to `CC(=O)OC1(C)C(=O)OC1(C)C(C)=O` (stereo not drawn), the TGI in the assay on ACHN renal, in the assay on NCI-H23 lung, with OVCAR-4 ovarian, in the assay on HL-60(TB) leukemia, in the assay with TK-10 renal and in the assay on HCT-15 colon was above 100 µM in each case. The TGI in the assay on OVCAR-5 ovarian, in the assay with SF-539 CNS and in the assay on SNB-19 CNS was above 100 µM each time.
Consider `O=C1C(=O)N(c2ccc(Cl)cc2Cl)C(=O)C(=O)C1c1nc2ccccc2o1`, for which the TGI in the assay with ACHN renal, in the assay with NCI-H23 lung, in the assay on OVCAR-4 ovarian, with HL-60(TB) leukemia, in the assay on TK-10 renal and with HCT-15 colon was above 100 µM each time. Moreover, the TGI in the assay with OVCAR-5 ovarian, in the assay with SF-539 CNS and in the assay with SNB-19 CNS was above 100 µM throughout.
Regarding `c1ccc2c(c1)[nH]c1cnc3c4cccnc4[nH]c3c12`, the TGI with ACHN renal was determined as 23.4 µM; in the assay with NCI-H23 lung, 62.1 µM; in the assay on OVCAR-4 ovarian, 32.6 µM; with HL-60(TB) leukemia, 35.5 µM; with TK-10 renal it was 26.1 µM; in the assay on HCT-15 colon, 31.9 µM. In addition, the TGI with OVCAR-5 ovarian was determined as 40.3 µM; with SF-539 CNS, 44.7 µM; with SNB-19 CNS it was 37.3 µM.
On to `O=C1CN(C(=O)c2ccccc2)Cc2[nH]c3ccccc3c21`, for which the TGI in the assay on ACHN renal, with NCI-H23 lung, in the assay on OVCAR-4 ovarian, in the assay with HL-60(TB) leukemia, with TK-10 renal and with HCT-15 colon was above 100 µM each time. For the same molecule, the TGI in the assay with OVCAR-5 ovarian, in the assay on SF-539 CNS and in the assay with SNB-19 CNS was above 100 µM in each case.
As for `CCN(CCCl)CCCNc1c2ccccc2nc2ccc(OC)cc12`, the values for the TGI in the assay with ACHN renal and in the assay on HCT-15 colon were 1.34 µM and 1.86 µM, respectively. Further, the GI50 is 382 µM in the assay with NCI-H23 lung; 360 µM with OVCAR-4 ovarian; 175 µM in the assay with HL-60(TB) leukemia; 872 µM in the assay on TK-10 renal; 286 µM in the assay on OVCAR-5 ovarian; 421 µM in the assay on SF-539 CNS. Also, the GI50 in the assay with SNB-19 CNS was 205 µM.
As to `CC(=O)OCC1OC(OC2CC3C(C)(C)C(O)CC[C@]3(C)C3CCC45CC4(CC[C@H]5C(C)CC(O)C4OC4(C)C)[C@]23C)C(O)C(O)C1O` (stereo partly drawn), the GI50 with ACHN renal is 19.2 µM; in the assay on NCI-H23 lung, 12.2 µM; with OVCAR-4 ovarian, 13.9 µM; in the assay on HL-60(TB) leukemia, 1.73 µM; in the assay on TK-10 renal, 15.2 µM; in the assay with HCT-15 colon it was 14.2 µM. Also, the GI50 in the assay on OVCAR-5 ovarian was 15.8 µM; in the assay with SF-539 CNS it was 6.32 µM; in the assay with SNB-19 CNS, 5.14 µM. Further, the TGI is 15.5 µM and 33.6 µM in the assay on ACHN renal; 16.5 µM and 27.5 µM in the assay on NCI-H23 lung; 15.8 µM and 30.7 µM in the assay with OVCAR-4 ovarian; 3.67 µM and 4.18 µM in the assay on HL-60(TB) leukemia; 15.7 µM and 29.5 µM in the assay on TK-10 renal; 15.3 µM and 27.6 µM with HCT-15 colon. The TGI in the assay on OVCAR-5 ovarian was 16.1 µM and 29.2 µM; with SF-539 CNS it was 15.3 µM and 18.7 µM; in the assay with SNB-19 CNS it was 15 µM and 16.9 µM.
As to `C1OC1CO[C@@H]1CO[C@H]2[C@@H]1OC[C@H]2OCC1CO1` (stereo partly drawn), the TGI with ACHN renal, in the assay on NCI-H23 lung, with OVCAR-4 ovarian, in the assay on HL-60(TB) leukemia, in the assay with TK-10 renal and in the assay with HCT-15 colon was above 100 µM in each case. For the same molecule, the TGI in the assay with OVCAR-5 ovarian, in the assay with SF-539 CNS and with SNB-19 CNS was above 100 µM throughout.
In the case of `CCOC(=O)C1SC(=Nc2ccc(Cl)c(Cl)c2)N=C1C` (stereo not drawn), the TGI in the assay with ACHN renal is above 100 µM; in the assay with NCI-H23 lung, above 100 µM; with OVCAR-4 ovarian, 62 µM; in the assay on HL-60(TB) leukemia it was 59.7 µM; in the assay with TK-10 renal, above 100 µM; in the assay on HCT-15 colon, above 100 µM. Moreover, the TGI with OVCAR-5 ovarian, in the assay with SF-539 CNS and in the assay on SNB-19 CNS was above 100 µM each time.
As for `Cc1cc(NS(=O)(=O)c2ccc(NC(=O)c3cccc4c(Nc5ccc(S(=O)(=O)N=C(N)N)cc5)c5ccccc5nc34)cc2)no1`, the TGI in the assay with ACHN renal, with NCI-H23 lung, in the assay with OVCAR-4 ovarian, in the assay on HL-60(TB) leukemia, with TK-10 renal and in the assay on HCT-15 colon was above 100 µM throughout. Also, the TGI in the assay with OVCAR-5 ovarian, in the assay on SF-539 CNS and in the assay on SNB-19 CNS was above 100 µM each time.
In the case of `CC#CC1/C(=C\C(=O)OC)CCCC1O` (stereo not drawn), the TGI in the assay on ACHN renal, in the assay on NCI-H23 lung, in the assay on OVCAR-4 ovarian, with HL-60(TB) leukemia, in the assay with TK-10 renal and in the assay on HCT-15 colon was above 100 µM in each case. In addition, the TGI with OVCAR-5 ovarian, in the assay with SF-539 CNS and in the assay with SNB-19 CNS was above 100 µM each time.
Take `Nc1c(C(=O)Nc2ccccc2)[n+]([O-])c2ccccc2[n+]1[O-]`: the TGI in the assay on ACHN renal was found to be 30.1 µM; with NCI-H23 lung, 28.8 µM; in the assay on OVCAR-4 ovarian, 33.5 µM; with HL-60(TB) leukemia it was 90.8 µM; in the assay with TK-10 renal, 42.2 µM; with HCT-15 colon, 28.2 µM. Also, the TGI was determined as 37.5 µM with OVCAR-5 ovarian, 37.3 µM with SF-539 CNS and 31 µM in the assay on SNB-19 CNS.

The values are drawn from PubChem BioAssay (NCI).
